Assay [1] deals with Pneumocystis murina. As to the kind of experiment: In vitro ATP content of Pneumocystis (luciferin-luciferase assay).
The subject of assay [2] is Pneumocystis carinii. The assay is described as above.
For assay [3], the system named is C. krusei. Kind of assay: MIC against Candida species (Table 4). Particulars: Pichia kudriavzevii, 24 h.
Assay [4] relates to Cryptococcus neoformans. Kind of assay: MIC against Cryptococcus neoformans (Table 4). The following applies: Cryptococcus neoformans, 72 h.
The subject of assay [5] is C. parapsilosis. Kind of assay: MIC against Candida species (Table 4). Particulars: 24 h.
For assay [6], the system named is C. guilliermondii. As to the kind of experiment: MIC against Candida species (Table 4). The following applies: Meyerozyma guilliermondii, 24 h.
The subject of assay [7] is C. glabrata. Kind of assay: MIC against Candida species (Table 4). Particulars: Nakaseomyces glabratus, 24 h.
In assay [8] the test system is Histoplasma capsulatum. In kind it is cell-based. The following applies: 24-hour treatment.
For assay [9], the system named is Lomentospora prolificans. As to the kind of experiment: MIC, CLSI M38-A2 broth dilution (Table 1). The format is cell-based. Particulars: isolate LP1, 48 hours.
Assay [10] concerns P. variotii. As to the kind of experiment: MIC (Table 5). The following applies: Paecilomyces variotii, read-out: MIC 100%.
Assay [11] has as its system Apophysomyces. As to the kind of experiment: MIC (Table 5). Particulars: 24 h.
Assay [12] concerns Rhizopus oryzae. As to the kind of experiment: MIC (Table 5). The following applies: Rhizopus arrhizus, 24 h.
Assay [13] deals with Rhizopus oryzae. Kind of assay: MIC, CLSI M38-A2 broth dilution (Table 1). In kind it is cell-based. (In general: Dilution methods test growth across graded concentrations, often in twofold steps.)
Assay [14] relates to Scedosporium apiospermum. As to the kind of experiment: MIC, CLSI M38-A2 broth dilution (Table 1). The format is cell-based.
In assay [15] the test system is Paeceilomyces variotii. Kind of assay: MIC, CLSI M38-A2 broth dilution (Table 1). The format is cell-based. Particulars: isolate QC.
Assay [16] has as its system Fusarium solani. Kind of assay: MIC, CLSI M38-A2 broth dilution (Table 1). Particulars: isolate FS1, 48 hours. In kind it is cell-based.
Assay [17] has as its system Blastomyces dermatitidis. As to the kind of experiment: MIC, macrodilution method (Table 1). In kind it is cell-based. Particulars: 96 hours.
Assay [18] concerns Aspergillus fumigatus. As to the kind of experiment: Recovery of Aspergillus fumigatus mycelia growth after removal of antifungal drugs (MTT). The format is cell-based. The following applies: treated 12 hours, drug removed, 24 hours more.
Assay [19] has as its system Coccidioides sp. As to the kind of experiment: microbe, parasite or virus in culture. In kind it is cell-based. Particulars: Coccidioides.
Assay [20] relates to Blastomyces dermatitidis. As to the kind of experiment: MIC (Table 6). In kind it is cell-based. Particulars: read-out: MIC VORI 100% 50%.
In assay [21] the test system is Fusarium sp. As to the kind of experiment: MIC (Table 5). In kind it is cell-based. The following applies: Fusarium, read-out: MIC 100%.
Assay [22] has as its system Scedosporium sp. Kind of assay: MIC (Table 5).
Assay [23] relates to Fusarium oxysporum. As to the kind of experiment: MIC, CLSI M38-A2 broth dilution (Table 1). In kind it is cell-based.

In brackets after ≈: the same amount, converted by molar mass. Read-outs that look alike come from different tables or passages of the source. Bounds are passed on as bounds.

In general, MIC50 refers to an inhibitory concentration at the 50% level, which refers to growth in some studies and to a panel of isolates in others. Higher therefore signals weaker potency.

`CC1(C)S[C@@H]2[C@H](NC(=O)[C@H](N)c3ccccc3)C(=O)N2[C@H]1C(=O)O` [Ampicillin, ampicillin, reference compound]: the “Pm % Reduction in ATP/Vehicle Control” value is reported as 0% in assay [1] (Table 3, 10 μg/ml, 24 hours); 0% in [1] (Table 3, 10 μg/ml, 48 hours); 0% in assay [1] (Table 3, 10 μg/ml, 72 hours); 0% in assay [2] (Table 2, 10 μg/ml, 24 hours); 0% in [2] (Table 2, 10 μg/ml, 48 hours); 0% in [2] (Table 2, 10 μg/ml, 72 hours).

As for `OC(Cn1cncn1)(Cn1cncn1)c1ccc(F)cc1F` [FLU, Fluconazole, reference compound], the MIC50 in [3] was 8 µg/mL (≈ 26.1 µM); in [4] (isolate CN-1, 72 hrs), 4 µg/mL (≈ 13.1 µM); in [4] (isolate CN-2, 72 hrs) it was 12 µg/mL (≈ 39.2 µM); in assay [4] (isolate CN-3, 72 hrs), 64 µg/mL (≈ 209 µM); in assay [5] (isolate CP-1, 24 hrs) it was 0.25 µg/mL (≈ 0.816 µM); in assay [5] (isolate CP-2, 24 hrs), at most 0.125 µg/mL. The MIC50 in [5] (isolate CP-3, 24 hrs) was 0.25 µg/mL (≈ 0.816 µM); in assay [5] (isolate CP-4, 24 hrs) it was 0.25 µg/mL (≈ 0.816 µM); in assay [5] (isolate CP-5, 24 hrs) it was at most 0.125 µg/mL; in assay [5] (isolate CP-6, 24 hrs), 16 µg/mL (≈ 52.2 µM); in assay [5] (isolate CP-7, 24 hrs), 16 µg/mL (≈ 52.2 µM); in assay [5] (isolate QC), 1 µg/mL (≈ 3.27 µM). The MIC50 in assay [6] (isolate Cgu-1, 24 hrs) turned out to be 8 µg/mL (≈ 26.1 µM); in [6] (isolate Cgu-2, 24 hrs) it was 2 µg/mL (≈ 6.53 µM); in [6] (isolate Cgu-3, 24 hrs), 1 µg/mL (≈ 3.27 µM); in [6] (isolate Cgu-4, 24 hrs) it was 1 µg/mL (≈ 3.27 µM); in assay [6] (isolate Cgu-5, 24 hrs), 2 µg/mL (≈ 6.53 µM); in assay [6] (isolate Cgu-6, 24 hrs), 8 µg/mL (≈ 26.1 µM). Moreover, the MIC50 in assay [6] (isolate Cgu-7, 24 hrs) is 4 µg/mL (≈ 13.1 µM); in [7] (isolate CG-1, 24 hrs) it was 16 µg/mL (≈ 52.2 µM); in [7] (isolate CG-2, 24 hrs) it was 16 µg/mL (≈ 52.2 µM); in assay [7] (isolate CG-3, 24 hrs), 32 µg/mL (≈ 104 µM); in assay [7] (isolate CG-4, 24 hrs) it was 32 µg/mL (≈ 104 µM); in assay [7] (isolate CG-5, 24 hrs), 16 µg/mL (≈ 52.2 µM). For the same compound, the MIC50 in [7] (isolate CG-6, 24 hrs) amounted to 2 µg/mL (≈ 6.53 µM); in assay [7] (isolate CG-7, 24 hrs), 2 µg/mL (≈ 6.53 µM); in [7] (isolate CG-8, 24 hrs), 2 µg/mL (≈ 6.53 µM); in [7] (isolate CG-9, 24 hrs), 2 µg/mL (≈ 6.53 µM); in assay [7] (isolate CG-10, 24 hrs) it was 4 µg/mL (≈ 13.1 µM). The “reduction of fungal viability” value in [8] (then growth in absence of drug) is on record as “did not significantly reduce fungal viability”. Also, in assay [8] (ethidium bromide / fluorescein staining), the “viability staining of yeasts” value is on record as “only fungistatic”.

For `CC[C@@H]([C@H](C)O)n1ncn(-c2ccc(N3CCN(c4ccc(OC[C@@H]5CO[C@@](Cn6cncn6)(c6ccc(F)cc6F)C5)cc4)CC3)cc2)c1=O` [POS, Posaconazole, reference compound], the “MIC 100%” value in assay [9] is reported as 0.5 gg/m1; in assay [13] (isolate RO1, 24 hours), 1 gg/m1; in assay [13] (isolate RO2, 24 hours) it was 1 gg/m1; in [13] (isolate RO3, 24 hours), 1 gg/m1; in [14] (isolate SA2, 72 hours) it was 2 gg/m1; in assay [15], 0.25 gg/m1. Also, the MIC is 0.06 µg/mL (≈ 0.0856 µM) in [10] (24 h); 0.125 µg/mL (≈ 0.178 µM) in assay [11] (read-out: MIC 100%, isolate AE-1, 24 hrs); 1 µg/mL (≈ 1.43 µM) in assay [11] (read-out: MIC 100%, isolate AE-2, 24 hrs); 0.5 µg/mL (≈ 0.713 µM) in assay [12] (read-out: MIC 100%, isolate R-1, 24 hrs); 0.5 µg/mL (≈ 0.713 µM) in [12] (read-out: MIC 100%, isolate R-2, 24 hrs); 0.5 µg/mL (≈ 0.713 µM) in assay [12] (read-out: MIC 100%, isolate R-3, 24 hrs). Further, the MIC in assay [12] (read-out: MIC 100%, isolate R-4, 24 hrs) is 0.125 µg/mL (≈ 0.178 µM); in assay [12] (read-out: MIC 100%, isolate R-5, 24 hrs), 0.25 µg/mL (≈ 0.357 µM); in assay [12] (read-out: MIC 100%, isolate R-6, 24 hrs), 0.125 µg/mL (≈ 0.178 µM).

On to `N=C(N)c1ccc(OCCCCCOc2ccc(C(=N)N)cc2)cc1` [Pent., pentamidine isethionate, reference compound], for which the “Pm % Reduction in ATP/Vehicle Control” value worked out at 72.06% in [1] (Table 3, 1 μg/ml, 24 hours); 87.94% in [1] (Table 3, 1 μg/ml, 48 hours); 93.85% in [1] (Table 3, 1 μg/ml, 72 hours); 74.18% in assay [2] (Table 2, 1 μg/ml, 24 hours); 97.06% in assay [2] (Table 2, 1 μg/ml, 48 hours); 97.47% in assay [2] (Table 2, 1 μg/ml, 72 hours).

Consider `C[C@@H](c1ncncc1F)[C@](O)(Cn1cncn1)c1ccc(F)cc1F` [VORI, Voriconazole, reference compound], for which the “MIC 100%” value in assay [9] is listed as 16 gg/m1; in assay [16], 8 gg/m1; in assay [17] (isolate BD1, macrodilution) it was 0.125 gg/m1; in assay [17] (isolate BD2, macrodilution) it was “≦0.03 gg/m1”; in assay [17] (isolate BD3, macrodilution), “≦0.03 gg/m1”; in assay [14] (isolate SA1, 72 hours) it was 0.25 gg/m1. The “MIC 100%” value in assay [14] (isolate SA2, 72 hours) is 0.125 gg/m1; in [23] (isolate FO1, 48 hours), 16 gg/m1; in assay [23] (isolate FO2, 48 hours) it was 16 gg/m1; in assay [15], 0.125 gg/m1. Also, the “recovery of mycelia growth after removal of drug” value (from here on “recovery of mycelia growth”) in assay [18] is reported as “leaves mycelia viable”. Moreover, the MIC in [10] was 0.06 µg/mL (≈ 0.172 µM); in assay [19] (read-out: MIC VORI 100% 50%, isolate COCCI-1, 72/192 hrs) it was 0.125 µg/mL (≈ 0.358 µM); in assay [19] (read-out: MIC VORI 100% 50%, isolate COCCI-2, 72/192 hrs), 0.25 µg/mL (≈ 0.716 µM); in [19] (read-out: MIC VORI 100% 50%, isolate COCCI-3, 72/192 hrs) it was 0.125 µg/mL (≈ 0.358 µM); in assay [20] (isolate BD1, 72/192 hrs), at most 0.03 µg/mL; in assay [20] (isolate BD2, 72/192 hrs), 0.125 µg/mL (≈ 0.358 µM). For the same compound, the MIC in assay [20] (isolate BD3, 72/192 hrs) is 0.125 µg/mL (≈ 0.358 µM); in assay [21] (isolate F-1, 48/72 hrs), 8 µg/mL (≈ 22.9 µM); in assay [21] (isolate F-2, 48/72 hrs), 8 µg/mL (≈ 22.9 µM); in [21] (isolate F-3, 48/72 hrs), above 16 µg/mL; in [22] (read-out: MIC 100%, isolate S-1, 48/72 hrs) it was 0.5 µg/mL (≈ 1.43 µM); in assay [22] (read-out: MIC 100%, isolate S-2, 48/72 hrs) it was 16 µg/mL (≈ 45.8 µM).

Take `C[C@@H]1[C@H](O)[C@@H](C)/C=C/C=C/C=C/C=C/C=C/C=C/C=C/[C@H](O[C@@H]2O[C@H](C)[C@@H](O)[C@H](N)[C@@H]2O)C[C@@H]2O[C@](O)(C[C@@H](O)C[C@@H](O)[C@H](O)CC[C@@H](O)C[C@@H](O)CC(=O)O[C@H]1C)C[C@H](O)[C@H]2C(=O)O` [amphotericin B]: in assay [18], the “recovery of mycelia growth” value is reported as “no viable Aspergillus fumigatus mycelia”.

Take `CC[C@H](C)C[C@H](C)CCCCCCCCC(=O)N[C@H]1C[C@@H](O)[C@@H](NCCN)NC(=O)[C@@H]2[C@@H](O)CCN2C(=O)[C@H]([C@H](O)CCN)NC(=O)[C@H]([C@H](O)[C@@H](O)c2ccc(O)cc2)NC(=O)[C@@H]2C[C@@H](O)CN2C(=O)[C@H]([C@@H](C)O)NC1=O` [caspofungin]: the “recovery of mycelia growth” value in assay [18] is recorded as “leaves mycelia viable”.
